Data taken from ChEMBL document CHEMBL5543162, “Discovery of a Novel Orally Bioavailable FLT3-PROTAC Degrader for Efficient Treatment of Acute Myeloid Leukemia and Overcoming Resistance of FLT3 Inhibitors” (J Med Chem, 2024).
pIC50: −log10 of the molar value. Active and inactive are the calls of the source. No cut-off for these calls is given here.

Experiments:
[1] = tested on: MV4-11; experiment: Antiproliferative activity against human MV4-11 cells expressing FLT3-ITD mutant incubated for 48 hrs by CCK8 assay; assay type: functional, cell-based; conditions: MV4-11, 48 h
[2] = tested on: Protein cereblon/Receptor-type tyrosine-protein kinase FLT3 (Homo sapiens), P36888+Q96SW2 [UNDEFINED MUTATION]; experiment: PROTAC activity at CRBN/FLT3-ITD mutant in human MV4-11 cells assessed as decrease in STAT5 level incubated for 12 hrs by Western blot analysis; assay type: cell-based; conditions: dose <= 20.0 nM
Protein cereblon/Receptor-type tyrosine-protein kinase FLT3 (Homo sapiens), P36888+Q96SW2 [UNDEFINED MUTATION], sequence (P36888 whole entry, looked up, stated change not applied): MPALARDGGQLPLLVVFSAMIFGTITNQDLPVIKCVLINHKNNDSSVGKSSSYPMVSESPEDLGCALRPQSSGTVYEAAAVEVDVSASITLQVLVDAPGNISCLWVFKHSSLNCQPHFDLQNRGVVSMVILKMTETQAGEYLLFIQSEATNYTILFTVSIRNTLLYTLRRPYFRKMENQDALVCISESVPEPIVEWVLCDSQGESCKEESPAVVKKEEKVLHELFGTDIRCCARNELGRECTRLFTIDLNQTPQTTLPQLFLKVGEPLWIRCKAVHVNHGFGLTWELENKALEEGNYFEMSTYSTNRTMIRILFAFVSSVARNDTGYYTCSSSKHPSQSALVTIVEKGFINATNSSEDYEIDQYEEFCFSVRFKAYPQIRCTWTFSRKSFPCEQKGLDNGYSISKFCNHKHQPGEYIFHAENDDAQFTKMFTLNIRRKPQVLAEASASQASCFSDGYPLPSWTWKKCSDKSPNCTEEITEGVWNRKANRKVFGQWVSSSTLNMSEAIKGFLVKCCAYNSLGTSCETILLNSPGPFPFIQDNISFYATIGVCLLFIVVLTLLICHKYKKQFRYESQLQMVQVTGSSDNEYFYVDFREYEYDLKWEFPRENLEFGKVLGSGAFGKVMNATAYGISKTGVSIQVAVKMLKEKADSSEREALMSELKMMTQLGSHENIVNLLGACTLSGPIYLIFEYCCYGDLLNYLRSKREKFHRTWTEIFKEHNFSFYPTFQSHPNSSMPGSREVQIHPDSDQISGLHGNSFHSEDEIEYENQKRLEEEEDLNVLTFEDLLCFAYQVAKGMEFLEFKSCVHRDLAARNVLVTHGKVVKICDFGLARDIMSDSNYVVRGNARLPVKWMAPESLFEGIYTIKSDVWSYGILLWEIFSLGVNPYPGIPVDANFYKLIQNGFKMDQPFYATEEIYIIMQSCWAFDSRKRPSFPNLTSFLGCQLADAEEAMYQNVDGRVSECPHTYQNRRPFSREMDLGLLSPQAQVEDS
Protein cereblon/Receptor-type tyrosine-protein kinase FLT3 (Homo sapiens), P36888+Q96SW2 [UNDEFINED MUTATION], sequence (Q96SW2 whole entry, looked up, stated change not applied): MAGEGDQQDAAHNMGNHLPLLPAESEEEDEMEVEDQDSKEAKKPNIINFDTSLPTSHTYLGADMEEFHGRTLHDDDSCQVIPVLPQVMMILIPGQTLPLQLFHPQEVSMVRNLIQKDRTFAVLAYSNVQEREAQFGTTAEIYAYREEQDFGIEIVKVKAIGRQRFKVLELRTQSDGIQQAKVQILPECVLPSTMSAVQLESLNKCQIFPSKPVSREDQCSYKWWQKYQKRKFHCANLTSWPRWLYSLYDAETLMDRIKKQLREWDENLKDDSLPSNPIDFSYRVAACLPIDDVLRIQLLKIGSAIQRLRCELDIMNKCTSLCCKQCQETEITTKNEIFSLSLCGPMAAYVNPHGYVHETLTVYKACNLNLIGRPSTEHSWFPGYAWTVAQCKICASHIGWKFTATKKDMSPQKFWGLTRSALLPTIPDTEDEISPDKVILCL

[3] = tested on: Protein cereblon/Receptor-type tyrosine-protein kinase FLT3 (Homo sapiens), P36888+Q96SW2 [UNDEFINED MUTATION]; experiment: PROTAC activity at CRBN/FLT3-ITD mutant in human MV4-11 cells assessed as decrease in STAT5 level at 20 nM by Western blot analysis; assay type: cell-based; conditions: time <= 12.0 hrs, TDE = time-dependent effect
[4] = tested on: Protein cereblon/Receptor-type tyrosine-protein kinase FLT3 (Homo sapiens), P36888+Q96SW2 [UNDEFINED MUTATION]; experiment: PROTAC activity at CRBN/FLT3-ITD mutant in human MOLM-13 cells assessed as protein degradation incubated for 12 hrs by Western blot analysis; assay type: cell-based; conditions: dose <= 20.0 nM
[5] = tested on: Protein cereblon/Receptor-type tyrosine-protein kinase FLT3 (Homo sapiens), P36888+Q96SW2 [UNDEFINED MUTATION]; experiment: PROTAC activity at CRBN/FLT3-ITD mutant in human MOLM-13 cells assessed as decrease in S6K level incubated for 12 hrs by Western blot analysis; assay type: cell-based; conditions: dose <= 20.0 nM
[6] = tested on: Protein cereblon/Receptor-type tyrosine-protein kinase FLT3 (Homo sapiens), P36888+Q96SW2 [UNDEFINED MUTATION]; experiment: PROTAC activity at CRBN/FLT3-ITD mutant in human MOLM-13 cells assessed as decrease in ERK level incubated for 12 hrs by Western blot analysis; assay type: cell-based; conditions: dose <= 20.0 nM
[7] = tested on: Protein cereblon/Receptor-type tyrosine-protein kinase FLT3 (Homo sapiens), P36888+Q96SW2 [UNDEFINED MUTATION]; experiment: PROTAC activity at CRBN/FLT3-ITD mutant in human MOLM-13 cells assessed as decrease in STAT5 level at 20 nM by Western blot analysis; assay type: cell-based; conditions: time <= 12.0 hrs, TDE = time-dependent effect
[8] = tested on: Protein cereblon/Receptor-type tyrosine-protein kinase FLT3 (Homo sapiens), P36888+Q96SW2 [UNDEFINED MUTATION]; experiment: PROTAC activity at CRBN/FLT3-ITD mutant in human MOLM-13 cells assessed as decrease in ERK level at 20 nM by Western blot analysis; assay type: cell-based; conditions: time <= 12.0 hrs, TDE = time-dependent effect
[9] = tested on: Protein cereblon/Receptor-type tyrosine-protein kinase FLT3 (Homo sapiens), P36888+Q96SW2 [UNDEFINED MUTATION]; experiment: PROTAC activity at CRBN/FLT3-ITD mutant in human MV4-11 cells assessed as protein degradation at 100 nM incubated for 8 hrs in presence of bortezomib by Western blot analysis; assay type: cell-based
[10] = tested on: Protein cereblon/Receptor-type tyrosine-protein kinase FLT3 (Homo sapiens), P36888+Q96SW2 [UNDEFINED MUTATION]; experiment: PROTAC activity at CRBN/FLT3-ITD mutant in human MOLM-13 cells assessed as protein degradation at 100 nM incubated for 8 hrs in presence of bortezomib by Western blot analysis; assay type: cell-based
[11] = Antiproliferative activity against human HL-60 cells expressing wild-type FLT3 incubated for 48 hrs by CCK8 assay; assay type: toxicity, cell-based
[12] = Antiproliferative activity against human PBMC cells at 30 to 1000 nM incubated for 48 hrs by CCK8 assay; assay type: toxicity, cell-based; conditions: 1 µM, dose 30-1000 nM
[13] = tested on: MV4-11; experiment: Induction of cell cycle arrest at G1 phase in human MV4-11 cells at 5 nM incubated for 24 hrs by PI/RNase staining based flow cytometry relative to control; assay type: functional
[14] = tested on: MOLM-13; experiment: Induction of apoptosis in human MOLM-13 cells incubated for 24 hrs by Annexin V-FITC/PI staining based flow cytometry; assay type: functional, cell-based; conditions: dose 25-100 nM
[15] = Cmax in Sprague-Dawley rat at 10 mg/kg, po measured for 24 hrs by LC-MS/MS analysis; assay type: ADME, organism-based; conditions: in vivo
[16] = Volume of distribution at steady state in Sprague-Dawley rat at 1 mg/kg, iv measured for 24 hrs by LC-MS/MS analysis; assay type: ADME, organism-based; conditions: in vivo, read-out: Vdss
[17] = Tmax in Sprague-Dawley rat at 10 mg/kg, po measured for 24 hrs by LC-MS/MS analysis; assay type: ADME, organism-based; conditions: in vivo
[18] = Half life in Sprague-Dawley rat at 10 mg/kg, po measured for 24 hrs by LC-MS/MS analysis; assay type: ADME, organism-based; conditions: in vivo
[19] = Volume of distribution at steady state in Sprague-Dawley rat at 10 mg/kg, po measured for 24 hrs by LC-MS/MS analysis; assay type: ADME, organism-based; conditions: in vivo
[20] = Clearance in Sprague-Dawley rat at 10 mg/kg, po measured for 24 hrs by LC-MS/MS analysis; assay type: ADME, organism-based; conditions: in vivo
[21] = Toxicity in nu/nu mouse xenografted with human MV4-11 cells assessed as change in body weight at 1.25 to 10 mg/kg, po administered daily for 2 weeks; assay type: organism-based; conditions: in vivo, 336 h, dose 1.25-10 mg/kg
[22] = tested on: MV4-11; experiment: In vivo PROTAC activity at CRBN/FLT3-ITD mutant in human MV4-11 cells xenografted in nu/nu mouse assessed as protein degradation at 1.25 mg/kg, po administered daily for 2 weeks by immunoblot analysis; assay type: functional, organism-based
[23] = tested on: MV4-11; experiment: Antitumor activity against human MV4-11 cells xenografted in nu/nu mouse assessed as decrease in Ki67 level at 1.25 to 10 mg/kg, po administered daily for 2 weeks by IHC analysis; assay type: functional, organism-based; conditions: dose 1.25-10 mg/kg
[24] = Toxicity in nu/nu mouse xenografted with human MV4-11 cells assessed as damage in lung at 1.25 to 10 mg/kg, po administered daily for 2 weeks by H and E staining based analysis; assay type: organism-based; conditions: in vivo, 336 h, dose 1.25-10 mg/kg
[25] = tested on: MV4-11; experiment: Antitumor activity against human MV4-11 cells expressing luciferase xenografted in NSG mouse assessed as increase in animal survival at 2.5 mg/kg, po administered daily for 3 weeks and measured for 58 days; assay type: functional, organism-based; conditions: time 58.0 day
[26] = tested on: Mus musculus; experiment: Anti-leukemic activity in NSG mouse xenografted with human MV4-11 cells expressing luciferase assessed as decrease in CD45+/CD33+ cells proportion in peripheral blood at 1.25 to 10 mg/kg, po administered daily for 3 weeks; assay type: functional, organism-based; conditions: dose 1.25-10 mg/kg
[27] = tested on: Mus musculus; experiment: Anti-leukemic activity in NSG mouse xenografted with human MV4-11 cells expressing luciferase assessed as decrease in CD45+/CD33+ cells proportion in bone marrow at 1.25 to 10 mg/kg, po administered daily for 3 weeks; assay type: functional, organism-based; conditions: dose 1.25-10 mg/kg
[28] = Toxicity in nude mouse xenografted with human MV4-11 cells assessed as change in body weight at 120 mg/kg, po administered daily for 15 days; assay type: organism-based; conditions: in vivo, 360 h, time 15 day
[29] = tested on: Protein cereblon/Receptor-type tyrosine-protein kinase FLT3 (Homo sapiens), P36888+Q96SW2 [UNDEFINED MUTATION]; experiment: PROTAC activity at CRBN/FLT3-ITD in human MV4-11 cells assessed as effect on PI3K-Akt signalling pathway by KEGG analysis; assay type: cell-based
[30] = Stability in human liver microsomes assessed as half life; assay type: ADME, Microsome
[31] = Stability in human liver microsomes assessed as intrinsic clearance; assay type: ADME, Microsome; conditions: read-out: CLH
[32] = Stability in mouse liver microsomes assessed as intrinsic clearance; assay type: ADME, Microsome; conditions: read-out: CLH
[33] = Stability in human liver microsomes assessed as hepatic clearance; assay type: ADME, Microsome
[34] = Stability in monkey liver microsomes assessed as hepatic clearance; assay type: ADME, Microsome; conditions: chlorocebus aethiops
[35] = target: Cytochrome P450 2C19 (Homo sapiens, UniProt P33261); experiment: Inhibition of CYP2C19 (unknown origin); assay type: ADME
Cytochrome P450 2C19, sequence (P33261 whole entry): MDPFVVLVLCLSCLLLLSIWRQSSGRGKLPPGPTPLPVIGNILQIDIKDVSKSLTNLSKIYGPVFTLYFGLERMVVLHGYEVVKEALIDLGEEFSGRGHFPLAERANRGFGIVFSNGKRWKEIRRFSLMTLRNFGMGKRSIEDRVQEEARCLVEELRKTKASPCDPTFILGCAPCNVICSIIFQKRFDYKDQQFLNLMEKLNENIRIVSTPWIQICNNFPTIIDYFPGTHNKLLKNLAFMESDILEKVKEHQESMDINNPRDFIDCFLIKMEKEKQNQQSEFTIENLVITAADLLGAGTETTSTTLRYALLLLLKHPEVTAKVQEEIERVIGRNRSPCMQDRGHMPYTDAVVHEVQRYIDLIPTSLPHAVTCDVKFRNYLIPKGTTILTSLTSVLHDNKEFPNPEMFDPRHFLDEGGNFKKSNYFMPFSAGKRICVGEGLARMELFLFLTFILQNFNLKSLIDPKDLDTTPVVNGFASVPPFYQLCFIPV

[36] = target: Cytochrome P450 2D6 (Homo sapiens, UniProt P10635); experiment: Inhibition of CYP2D6 (unknown origin); assay type: ADME
Cytochrome P450 2D6, sequence (P10635 whole entry): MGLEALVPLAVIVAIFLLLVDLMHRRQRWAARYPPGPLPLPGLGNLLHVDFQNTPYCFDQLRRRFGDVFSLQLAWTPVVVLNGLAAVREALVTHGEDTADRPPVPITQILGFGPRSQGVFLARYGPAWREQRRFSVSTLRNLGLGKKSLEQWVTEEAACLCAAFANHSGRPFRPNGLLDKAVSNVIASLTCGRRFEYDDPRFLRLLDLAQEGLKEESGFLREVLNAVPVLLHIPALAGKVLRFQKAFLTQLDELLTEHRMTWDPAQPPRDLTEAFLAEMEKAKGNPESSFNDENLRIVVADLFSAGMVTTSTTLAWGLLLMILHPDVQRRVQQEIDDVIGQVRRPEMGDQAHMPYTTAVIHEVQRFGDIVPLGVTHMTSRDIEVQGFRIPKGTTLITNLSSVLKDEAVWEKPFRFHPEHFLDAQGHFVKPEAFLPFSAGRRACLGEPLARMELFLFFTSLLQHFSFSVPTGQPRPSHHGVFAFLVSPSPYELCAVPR

[37] = target: T1, CYP3A4/CYP3A5 (Homo sapiens, UniProt P08684+P20815); experiment: Inhibition of CYP3A4/CYP3A5 (unknown origin) using midazolam as substrate; assay type: ADME, protein assay; conditions: probe midazolam
[38] = target: T1, CYP3A4/CYP3A5; experiment: Inhibition of CYP3A4/CYP3A5 (unknown origin) using testosterone as substrate; assay type: ADME, protein assay; conditions: probe testosterone
[39] = target: Voltage-gated inwardly rectifying potassium channel KCNH2 (Homo sapiens, UniProt Q12809); experiment: Inhibition of hERG; assay type: toxicity
Voltage-gated inwardly rectifying potassium channel KCNH2, sequence (Q12809 whole entry): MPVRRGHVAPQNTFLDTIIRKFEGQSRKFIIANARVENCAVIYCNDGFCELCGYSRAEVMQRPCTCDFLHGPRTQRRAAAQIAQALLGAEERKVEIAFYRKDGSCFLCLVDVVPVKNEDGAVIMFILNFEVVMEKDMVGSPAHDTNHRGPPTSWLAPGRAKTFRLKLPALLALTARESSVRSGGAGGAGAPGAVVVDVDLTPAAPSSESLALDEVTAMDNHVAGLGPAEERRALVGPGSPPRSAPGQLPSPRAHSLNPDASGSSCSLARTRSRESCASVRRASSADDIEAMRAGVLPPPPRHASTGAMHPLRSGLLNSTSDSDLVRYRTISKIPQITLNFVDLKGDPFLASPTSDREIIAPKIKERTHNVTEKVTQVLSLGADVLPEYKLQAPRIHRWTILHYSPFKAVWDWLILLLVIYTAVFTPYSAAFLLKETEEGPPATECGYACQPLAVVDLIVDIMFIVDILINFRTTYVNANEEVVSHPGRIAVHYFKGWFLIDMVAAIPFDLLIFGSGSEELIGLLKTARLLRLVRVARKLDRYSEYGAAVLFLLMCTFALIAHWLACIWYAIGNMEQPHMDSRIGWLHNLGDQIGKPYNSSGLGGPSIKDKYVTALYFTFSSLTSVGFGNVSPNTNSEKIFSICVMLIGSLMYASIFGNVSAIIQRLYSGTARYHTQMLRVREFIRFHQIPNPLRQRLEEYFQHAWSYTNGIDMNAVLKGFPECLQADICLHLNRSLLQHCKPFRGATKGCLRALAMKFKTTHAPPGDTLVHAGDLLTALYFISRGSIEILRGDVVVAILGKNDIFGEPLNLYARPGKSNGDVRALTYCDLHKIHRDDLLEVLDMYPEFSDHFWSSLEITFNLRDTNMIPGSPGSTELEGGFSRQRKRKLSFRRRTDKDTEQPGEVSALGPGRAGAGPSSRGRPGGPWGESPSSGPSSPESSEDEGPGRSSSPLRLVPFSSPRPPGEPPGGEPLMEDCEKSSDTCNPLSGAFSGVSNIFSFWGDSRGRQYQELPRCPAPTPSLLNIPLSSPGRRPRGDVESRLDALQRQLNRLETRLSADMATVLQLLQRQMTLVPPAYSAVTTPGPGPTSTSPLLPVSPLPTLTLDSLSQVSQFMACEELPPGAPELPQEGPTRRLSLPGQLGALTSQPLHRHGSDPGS

Cc1c(NC(=O)CN2CCN(CC3CCN(c4ccc5c(c4)C(=O)N(C4CCC(=O)NC4=O)C5=O)CC3)CC2)c[nH]c1/C=C1\C(=O)Nc2ccc(F)cc21 (centres undefined)
pIC50 [1]: 7.40 | Activity [2]: Dose-Dependent Effect | Activity [3]: Tde | Activity [4]: Dose-Dependent Effect | Activity [5]: Dose-Dependent Effect | Activity [6]: Dose-Dependent Effect | Activity [7]: Tde | Activity [8]: Tde | Activity [9]: inactive | Activity [10]: inactive | IC50 at 48 h [11]: > 40 µM | Activity [12]: Non-Toxic | Activity [13]: 85.5% | Activity [14]: Dose-Dependent Effect | Cmax [15]: 1120 ng/mL | Vd [16]: 3.5 L/kg | Tmax [17]: 6.2 h | half-life [18]: 3.8 h | Vdss [19]: 5.7 L/kg | CL/F [20]: 11.2 mL/min/kg | Activity [21]: Non-Toxic | Activity [22]: Active | Activity [23]: Active | Activity [24]: Non-Toxic | Activity [25]: Active | Activity [26]: Active | Activity [27]: Active | Activity [28]: Non-Toxic | Activity [29]: Active | half-life [30]: 1.16 h | CLint scaled [31]: 23.1 mL/min/kg | CLint scaled [32]: 92.7 mL/min/kg | CLhep predicted [33]: 10.9 mL/min/kg | CLhep predicted [34]: 23.4 mL/min/kg | pIC50 [35]: < 4.30 | pIC50 [36]: < 4.30 | pIC50 [37]: < 4.30 | pIC50 [38]: < 4.30 | pIC50 [39]: < 4.40
